# Measured values from patent US10188634B2, “3-(3H-imidazo[4,5-C]pyridin-2-yl)-1 H-pyrazolo[4,3-B]pyridines and therapeutic uses thereof” (Samumed, LLC, priority 2015, dated 2019).
# Legend:
# [1] = system: Wnt activity (Sp5-Luc reporter, human Sp5 promoter with eight TCF/LEF binding sites) in SW480 colon carcinoma cells; test: Screening assay for Wnt activity: Sp5-Luc reporter gene assay in SW480 cells; format: cell-based; conditions: for inhibition at 10 µM: read-out: percent inhibition at 10 μM (given for EC50 of >10 μM); for EC50: 10-point dose-response starting from 10 μM, overnight incubation
# Procedure, shortened: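 SW480 cells stably carrying Sp5-Luc reporter (eight TCF/LEF sites) plated at 4,000/well in 1% FBS medium with compound (10-point 1:3 series from 10 μM, 0.1% DMSO) overnight at 37 °C. BrightGlo luminescence normalized to DMSO; EC50 by four-parameter fit, else % inhibition at 10 μM.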
# [2] = system: primary human mesenchymal stem cells (hMSCs); test: Induction of chondrogenesis in primary human mesenchymal stem cells (hMSCs), nodule imaging with Rhodamine B / Nile Red; format: cell-based; conditions: for Emax: hMSCs chondrogenesis, TGF-β3 (10 ng/mL) as positive control, read-out: Max. Activity as % TGF-β3 activity; for EC50: hMSCs, concentration required to induce 50% levels of chondrogenesis vs TGF-β3 positive control, read-out: Conc (nM) of 50% TGF-β3 activity
# Experimental: Representative compounds were screened using primary human mesenchymal stem cells (hMSCs) to determine their ability to induce chondrogenesis (process by which cartilage is developed).
# Human Mesenchymal Stem Cell Culture: Primary human mesenchymal stem cells (hMSCs) were purchased from Lonza (Walkersville, Md.) and expanded in Mesenchymal Stem Cell Growth Media (Lonza). Cells between passage 3 and 6 were used for the experiments.
# Compound Screening: Each compound was dissolved in DMSO as a 10 mM stock and used to prepare compound source plates. For the 96 well assay, serial dilution (1:3, 6-point dose-response curves from 2700 nM to 10 nM) and compound transfer was performed using the ECHO 550 (Labcyte, Sunnyvale, Calif.) into 96-well clear bottom assay plates (Greiner Bio-One) with appropriate DMSO backfill for a final DMSO concentration of 0.03%. hMSCs were plated at 20,000 cells/well in 250 μL/well Incomplete Chondrogenic Induction Medium (Lonza; DMEM, dexamethasone, ascorbate, insulin-transferrin-selenium [ITS supplement], gentamycin-amphotericin [GA-1000], sodium pyruvate, proline and L-glutamine). TGF-β3 (10 ng/mL) was used as a positive control for differentiation while negative control wells were treated with 75 nL DMSO for normalization and calculating EC50 values. For the 384 well assay, serial dilution (1:3, 8-point dose-response curves from 5000 nM to 2.2 nM) and compound transfer was performed using the ECHO 550 (Labcyte, Sunnyvale, Calif.) into 384-well clear bottom assay plates (Greiner Bio-One) with appropriate DMSO backfill for a final DMSO concentration of 0.03%. hMSCs were plated at 8,000 cells/well in 80 μL/well Incomplete Chondrogenic Induction Medium (Lonza; DMEM, dexamethasone, ascorbate, insulin-transferrin-selenium [ITS supplement], gentamycin-amphotericin [GA-1000], sodium pyruvate, proline and L-glutamine). TGF-β3 (10 ng/mL) was used as a positive control for differentiation while negative control wells were treated with 25 nL DMSO for normalization and calculating EC50 values. Cells were incubated at 37° C. and 5% CO2 for 6 days. To image chondrogenic nodules, the cells were fixed using 4% formaldehyde (Electron Microscopy Sciences), and stained with 2 μg/mL Rhodamine B (Sigma-Aldrich) and 20 μM Nile Red (Sigma-Aldrich) [Johnson K., et.al, A Stem Cell-Based Approach to Cartilage Repair, Science, (2012), 336(6082). 717-721]. The nodules imaged (25 images per well for 96 well plates and 9 images per well for 384 well plates at 10× magnification) by excitation at 531 nm and emission at 625 nm and quantified using the CellInsight CX5 (Thermo Scientific). Area of nodules in each well was normalized to the average of 3 DMSO treated wells on the same plate using Excel (Microsoft Inc.). The normalized averages (fold change over DMSO) of 2 or 3 replicate wells for each compound concentration were calculated. Due to solubility limitations of some of the compounds, curve fitting was incomplete leading to inaccurate EC50 determinations.
# Using TGF-β3 as a positive control, the concentration of representative compounds required to induce 50% levels of chondrogenesis is reported. In addition, the maximum activity of each compound and the respective dose that each compound reached maximum chondrogenesis activity is reported.
Structure (SMILES),EC50 [1] [µM],EC50 [2] [nM],inhibition at 10 µM [1] [%],Emax [2] [%]
"CCC(=O)Nc1cncc(-c2ccc3[nH]nc(-c4nc5c(-c6cccc(F)c6)cncc5[nH]4)c3n2)c1 [Compound 1, N-(5-(3-(7-(3-Fluorophenyl)-3H-imidazo[4,5-c]pyridin-2-yl)-1H-pyrazolo[4,3-b]pyridin-5-yl)pyridin-3-yl)propionamide]",> 10,1670,12.3,580
"CC(C)CC(=O)Nc1cncc(-c2ccc3[nH]nc(-c4nc5c(-c6cccc(F)c6)cncc5[nH]4)c3n2)c1 [Compound 2, N-(5-(3-(7-(3-Fluorophenyl)-3H-imidazo[4,5-c]pyridin-2-yl)-1H-pyrazolo[4,3-b]pyridin-5-yl)pyridin-3-yl)-3-methylbutanamide]",> 10,21,43,53
"Fc1cccc(-c2cncc3[nH]c(-c4n[nH]c5ccc(-c6ccncc6)nc45)nc23)c1 [Compound 18, 3-(7-(3-Fluorophenyl)-3H-imidazo[4,5-c]pyridin-2-yl)-5-(pyridin-4-yl)-1H-pyrazolo[4,3-b]pyridine]",> 10,7,14,51
"O=C(Nc1cncc(-c2ccc3[nH]nc(-c4nc5c(-c6ccc(F)cc6)cncc5[nH]4)c3n2)c1)C1CCC1 [Compound 49, N-(5-(3-(7-(4-Fluorophenyl)-3H-imidazo[4,5-c]pyridin-2-yl)-1H-pyrazolo[4,3-b]pyridin-5-yl)pyridin-3-yl)cyclobutanecarboxamide]",> 10,,44,33
"Fc1ccc(-c2cncc3[nH]c(-c4n[nH]c5ccc(-c6cncnc6)nc45)nc23)cc1 [Compound 55, 3-(7-(4-Fluorophenyl)-3H-imidazo[4,5-c]pyridin-2-yl)-5-(pyrimidin-5-yl)-1H-pyrazolo[4,3-b]pyridine]",> 10,100,18,125
"Nc1cncc(-c2ccc3[nH]nc(-c4nc5c(-c6ccccc6F)cncc5[nH]4)c3n2)c1 [Compound 59, 5-(3-(7-(2-Fluorophenyl)-3H-imidazo[4,5-c]pyridin-2-yl)-1H-pyrazolo[4,3-b]pyridin-5-yl)pyridin-3-amine]",> 10,10,7,98
"CS(=O)(=O)NCc1cc(F)cc(-c2cncc3[nH]c(-c4n[nH]c5ccc(-c6cncc(NC(=O)CC7CCNCC7)c6)nc45)nc23)c1 [Compound 725, N-(5-(3-(7-(3-Fluoro-5-(methylsulfonamidomethyl)phenyl)-3H-imidazo[4,5-c]pyridin-2-yl)-1H-pyrazolo[4,3-b]pyridin-5-yl)pyridin-3-yl)-2-(piperidin-4-yl)acetamide]",> 10,,11.2,
"CN(C)CCNc1cc(F)cc(-c2cncc3[nH]c(-c4n[nH]c5ccc(-c6cncc(OCCN7CCCC7)c6)nc45)nc23)c1 [Compound 742, N^1-(3-Fluoro-5-(2-(5-(5-(2-(pyrrolidin-1-yl)ethoxy)pyridin-3-yl)-1H-pyrazolo[4,3-b]pyridin-3-yl)-3H-imidazo[4,5-c]pyridin-7-yl)phenyl)-N^2,N^2-dimethylethane-1,2-diamine]",> 10,,17.1,
"COc1cccc(-c2cncc3[nH]c(-c4n[nH]c5ccc(-c6cncc(NC(=O)Cc7ccccc7)c6)nc45)nc23)c1 [Compound 955, N-(5-(3-(7-(3-methoxylphenyl)-3H-imidazo[4,5-c]pyridin-2-yl)-1H-pyrazolo[4,3-b]pyridin-5-yl)pyridin-3-yl)-2-phenylacetamide]",> 10,,21.5,
"C1=C(c2ccc3[nH]nc(-c4nc5c(-c6ccc7c(c6)OCO7)cncc5[nH]4)c3n2)CCNC1 [Compound 1064, 3-(7-(Benzo[d][1,3]dioxol-5-yl)-3H-imidazo[4,5-c]pyridin-2-yl)-5-(1,2,3,6-tetrahydropyridin-4-yl)-1H-pyrazolo[4,3-b]pyridine]",> 10,,9.5,

# Now from value to compound, other results behind:
EC50 [1] [µM],EC50 [2] [nM],Structure (SMILES),inhibition at 10 µM [1] [%],Emax [2] [%]
> 10,,"COc1cccc(-c2cncc3[nH]c(-c4n[nH]c5ccc(-c6cncc(NC(=O)CC(C)(C)C)c6)nc45)nc23)c1 [Compound 961, N-(5-(3-(7-(3-methoxylphenyl)-3H-imidazo[4,5-c]pyridin-2-yl)-1H-pyrazolo[4,3-b]pyridin-5-yl)pyridin-3-yl)-3,3-dimethylbutanamide]",0,
> 10,,"COc1cccc(-c2cncc3[nH]c(-c4n[nH]c5ccc(-c6cn[nH]c6)nc45)nc23)c1 [Compound 975, 3-(7-(3-Methoxylphenyl)-3H-imidazo[4,5-c]pyridin-2-yl)-5-(1H-pyrazol-4-yl)-1H-pyrazolo[4,3-b]pyridine]",2,
> 10,,"COc1cccc(-c2cncc3[nH]c(-c4n[nH]c5ccc(-c6cncc(OC7CCNCC7)c6)nc45)nc23)c1 [Compound 980, 3-(7-(3-Methoxylphenyl)-3H-imidazo[4,5-c]pyridin-2-yl)-5-(5-(piperidin-4-yloxy)pyridin-3-yl)-1H-pyrazolo[4,3-b]pyridine]",25.8,
> 10,,"COc1cccc(-c2cncc3[nH]c(-c4n[nH]c5ccc(-c6cncc(O)c6)nc45)nc23)c1 [Compound 985, 5-(3-(7-(3-Methoxylphenyl)-3H-imidazo[4,5-c]pyridin-2-yl)-1H-pyrazolo[4,3-b]pyridin-5-yl)pyridin-3-ol]",7.8,
> 10,,"NC1CN(c2cncc(-c3ccc4[nH]nc(-c5nc6c(-c7ccc(Cl)s7)cncc6[nH]5)c4n3)n2)C1 [Compound 1023, 1-(6-(3-(7-(5-Chlorothiophen-2-yl)-3H-imidazo[4,5-c]pyridin-2-yl)-1H-pyrazolo[4,3-b]pyridin-5-yl)pyrazin-2-yl)azetidin-3-amine]",24.3,
> 10,,"c1cc2c(cc1-c1cncc3[nH]c(-c4n[nH]c5ccc(C6CCNCC6)nc45)nc13)OCO2 [Compound 1063, 3-(7-(Benzo[d][1,3]dioxol-5-yl)-3H-imidazo[4,5-c]pyridin-2-yl)-5-(piperidin-4-yl)-1H-pyrazolo[4,3-b]pyridine]",10.5,
> 10,,"Cn1cc(-c2ccc3[nH]nc(-c4nc5c(-c6ccc(F)cc6)cncc5[nH]4)c3n2)c(CO)n1 [Compound 1084, (4-(3-(7-(4-Fluorophenyl)-3H-imidazo[4,5-c]pyridin-2-yl)-1H-pyrazolo[4,3-b]pyridin-5-yl)-1-methyl-1H-pyrazol-3-yl)methanol]",11.8,
> 10,,"Cn1cc(-c2ccc3[nH]nc(-c4nc5c(N6CCCCC6)cncc5[nH]4)c3n2)c(CO)n1 [Compound 1089, (1-Methyl-4-(3-(7-(piperidin-1-yl)-3H-imidazo[4,5-c]pyridin-2-yl)-1H-pyrazolo[4,3-b]pyridin-5-yl)-1H-pyrazol-3-yl)methanol]",24.2,
> 10,,"Cn1cc(-c2ccc3[nH]nc(-c4nc5c(-c6ccc7c(c6)OCO7)cncc5[nH]4)c3n2)c(CO)n1 [Compound 1106, (4-(3-(7-(Benzo[d][1,3]dioxol-5-yl)-3H-imidazo[4,5-c]pyridin-2-yl)-1H-pyrazolo[4,3-b]pyridin-5-yl)-1-methyl-1H-pyrazol-3-yl)methanol]",24.7,
